Legend:
[1] = system: Escherichia coli; assay: Antimicrobial activity against Escherichia coli 25922 assessed as absence bacterial growth measured after 18 to 24 hrs incubation by NCCLS method; assay type: functional; settings: time 18-24 hrs
[2] = system: Escherichia coli; assay: Antimicrobial activity against Escherichia coli K88 assessed as absence bacterial growth measured after 18 to 24 hrs incubation by NCCLS method; assay type: functional; settings: time 18-24 hrs
[3] = system: Salmonella typhimurium; assay: Antimicrobial activity against Salmonella typhimurium 14028 assessed as absence bacterial growth measured after 18 to 24 hrs incubation by NCCLS method; assay type: functional, Salmonella enterica subsp. enterica serovar Typhimurium; settings: Salmonella enterica, time 18-24 hrs
[4] = Antimicrobial activity against Salmonella pullorum C7913 assessed as absence bacterial growth measured after 18 to 24 hrs incubation by NCCLS method; assay type: functional, Salmonella enterica subsp. enterica serovar Pullorum; settings: Salmonella enterica, time 18-24 hrs
[5] = system: Pseudomonas aeruginosa; assay: Antimicrobial activity against Pseudomonas aeruginosa 27853 assessed as absence bacterial growth measured after 18 to 24 hrs incubation by NCCLS method; assay type: functional; settings: time 18-24 hrs
[6] = system: Acinetobacter baumannii; assay: Antimicrobial activity against Acinetobacter baumannii 1.6769 assessed as absence bacterial growth measured after 18 to 24 hrs incubation by NCCLS method; assay type: functional; settings: time 18-24 hrs
[7] = system: Enterococcus faecalis; assay: Antimicrobial activity against Enterococcus faecalis 29212 assessed as absence bacterial growth measured after 18 to 24 hrs incubation by NCCLS method; assay type: functional; settings: time 18-24 hrs
[8] = system: Listeria monocytogenes; assay: Antimicrobial activity against Listeria monocytogenes 1.10753 assessed as absence bacterial growth measured after 18 to 24 hrs incubation by NCCLS method; assay type: functional; settings: time 18-24 hrs
[9] = system: Bacillus cereus; assay: Antimicrobial activity against Bacillus cereus 1.932 assessed as absence bacterial growth measured after 18 to 24 hrs incubation by NCCLS method; assay type: functional; settings: time 18-24 hrs
[10] = system: Staphylococcus aureus; assay: Antimicrobial activity against Staphylococcus aureus 29213 assessed as absence bacterial growth measured after 18 to 24 hrs incubation by NCCLS method; assay type: functional; settings: time 18-24 hrs
[11] = system: Staphylococcus aureus; assay: Antimicrobial activity against Methicillin-resistant Staphylococcus aureus 43300 assessed as absence bacterial growth measured after 18 to 24 hrs incubation by NCCLS method; assay type: functional; settings: time 18-24 hrs
[12] = system: Staphylococcus epidermidis; assay: Antimicrobial activity against Staphylococcus epidermidis 12228 assessed as absence bacterial growth measured after 18 to 24 hrs incubation by NCCLS method; assay type: functional; settings: time 18-24 hrs
[13] = system: Staphylococcus aureus; assay: Antimicrobial activity against Staphylococcus aureus 29213 assessed as absence bacterial growth measured after 18 to 24 hrs incubation by NCCLS m; assay type: functional; settings: time 18-24 hrs
[14] = system: Escherichia coli; assay: Antimicrobial activity against Escherichia coli 25922 assessed as bacterial killing measured after 16 hrs incubation; assay type: functional
[15] = system: Escherichia coli; assay: Antimicrobial activity against Escherichia coli K88 assessed as bacterial killing measured after 16 hrs incubation; assay type: functional
[16] = system: Salmonella typhimurium; assay: Antimicrobial activity against Salmonella typhimurium 14028 assessed as bacterial killing measured after 16 hrs incubation; assay type: functional, Salmonella enterica subsp. enterica serovar Typhimurium; settings: Salmonella enterica
[17] = system: Salmonella typhimurium; assay: Antimicrobial activity against Salmonella typhimurium C7731 assessed as bacterial killing measured after 16 hrs incubation; assay type: functional, Salmonella enterica subsp. enterica serovar Typhimurium; settings: Salmonella enterica
[18] = Antimicrobial activity against Salmonella pullorum C7913 assessed as bacterial killing measured after 16 hrs incubation; assay type: functional, Salmonella enterica subsp. enterica serovar Pullorum; settings: Salmonella enterica
[19] = system: Pseudomonas aeruginosa; assay: Antimicrobial activity against Pseudomonas aeruginosa 27853 assessed as bacterial killing measured after 16 hrs incubation; assay type: functional
[20] = system: Acinetobacter baumannii; assay: Antimicrobial activity against Acinetobacter baumannii 1.6769 assessed as bacterial killing measured after 16 hrs incubation; assay type: functional
[21] = system: Enterococcus faecalis; assay: Antimicrobial activity against Enterococcus faecalis 29212 assessed as bacterial killing measured after 16 hrs incubation; assay type: functional
[22] = system: Listeria monocytogenes; assay: Antimicrobial activity against Listeria monocytogenes 1.10753 assessed as bacterial killing measured after 16 hrs incubation; assay type: functional
[23] = system: Bacillus cereus; assay: Antimicrobial activity against Bacillus cereus 1.932 assessed as bacterial killing measured after 16 hrs incubation; assay type: functional
[24] = system: Staphylococcus aureus; assay: Antimicrobial activity against Staphylococcus aureus 29213 assessed as bacterial killing measured after 16 hrs incubation; assay type: functional
[25] = system: Staphylococcus aureus; assay: Antimicrobial activity against Methicillin-resistant Staphylococcus aureus 43300 assessed as bacterial killing measured after 16 hrs incubation; assay type: functional
[26] = system: Staphylococcus epidermidis; assay: Antimicrobial activity against Staphylococcus epidermidis 12228 assessed as bacterial killing measured after 16 hrs incubation; assay type: functional
[27] = system: Staphylococcus aureus; assay: Antimicrobial activity against Staphylococcus aureus 25923 assessed as bacterial killing measured after 16 hrs incubation; assay type: functional
[28] = system: Salmonella typhimurium; assay: Antimicrobial activity against Salmonella typhimurium C7731 assessed as absence bacterial growth measured after 18 to 24 hrs incubation by NCCLS method; assay type: functional, Salmonella enterica subsp. enterica serovar Typhimurium; settings: Salmonella enterica, time 18-24 hrs
[29] = system: Escherichia coli; assay: Antimicrobial activity against Escherichia coli 25922 assessed as absence bacterial growth measured after 18 to 24 hrs incubation in presence of 50% serum by NCCLS method; assay type: functional; settings: time 18-24 hrs
[30] = system: Escherichia coli; assay: Antimicrobial activity against Escherichia coli 25922 assessed as absence bacterial growth measured after 18 to 24 hrs incubation in presence of 25% serum by NCCLS method; assay type: functional; settings: time 18-24 hrs
[31] = system: Escherichia coli; assay: Antimicrobial activity against Escherichia coli 25922 assessed as absence bacterial growth measured after 18 to 24 hrs incubation in presence of 12.5% serum by NCCLS method; assay type: functional; settings: time 18-24 hrs
[32] = Hemolytic activity in human RBC at effective concentration at 128 uM measured after 1 hr by microplate reader relative to control; assay type: toxicity, cell-based, Erythrocyte; settings: human red blood cells (erythrocytes), read-out: Activity
[33] = system: Escherichia coli; assay: Antimicrobial activity against Escherichia coli 25922 assessed as absence bacterial growth measured after 18 to 24 hrs incubation in presence of NaCl by NCCLS method; assay type: functional; settings: time 18-24 hrs
[34] = system: Escherichia coli; assay: Antimicrobial activity against Escherichia coli 25922 assessed as absence bacterial growth measured after 18 to 24 hrs incubation in presence of KCl by NCCLS method; assay type: functional; settings: time 18-24 hrs
[35] = system: Escherichia coli; assay: Antimicrobial activity against Escherichia coli 25922 assessed as absence bacterial growth measured after 18 to 24 hrs incubation in presence of NH4Cl by NCCLS method; assay type: functional; settings: time 18-24 hrs
[36] = system: Escherichia coli; assay: Antimicrobial activity against Escherichia coli 25922 assessed as absence bacterial growth measured after 18 to 24 hrs incubation in presence of MgCl2 by NCCLS method; assay type: functional; settings: time 18-24 hrs
[37] = system: Escherichia coli; assay: Antimicrobial activity against Escherichia coli 25922 assessed as absence bacterial growth measured after 18 to 24 hrs incubation in presence of ZnCl2 by NCCLS method; assay type: functional; settings: time 18-24 hrs
[38] = system: Escherichia coli; assay: Antimicrobial activity against Escherichia coli 25922 assessed as absence bacterial growth measured after 18 to 24 hrs incubation in presence of FeCl3 by NCCLS method; assay type: functional; settings: time 18-24 hrs
[39] = system: Erythrocyte; assay: Hemolytic activity in human RBC at effective concentration measured after 1 hr by microplate reader analysis; assay type: toxicity, cell-based
[40] = Cytotoxicity against mouse RAW264.7 cells assessed as cell survival rate measured after 8 hrs by MTT assay; assay type: toxicity, cell-based
[41] = Cytotoxicity against human HEK-293T cells assessed as cell survival rate measured after 8 hrs by MTT assay; assay type: toxicity, cell-based
[42] = Cytotoxicity against porcine IPEC-J2 cells assessed as cell survival rate measured after 8 hrs by MTT assay; assay type: toxicity, cell-based, Sus scrofa; settings: pig

H-AKLWLKGGKLWLKGGKLWLKG-NH2 gave an MIC [1] of 4 µM, an MIC [2] of 1 µM and an MIC [3] of 4 µM. The MIC [4] was 2 µM, the MIC [5] was over 32 µM and the MIC [6] was 16 µM. The MIC [7] was over 32 µM, the MIC [8] was over 32 µM and the MIC [9] was over 32 µM. It also gave an MIC [10] of over 32 µM, an MIC [11] of over 32 µM and an MIC [12] of over 32 µM. The MIC [13] was over 32 µM, the MBC [14] was 8 µM and the MBC [15] was 1 µM. It also gave an MBC [16] of 16 µM, an MBC [17] of 32 µM and an MBC [18] of 2 µM. The MBC [19] was over 32 µM, the MBC [20] was 16 µM and the MBC [21] was over 32 µM. For the same substance, the MBC [22] was over 32 µM, the MBC [23] was over 32 µM and the MBC [24] was over 32 µM. For the same substance, the MBC [25] was over 32 µM, the MBC [26] was over 32 µM and the MBC [27] was over 32 µM. The MIC [28] was 16 µM, the MIC [29] was over 32 µM and the MIC [30] was over 32 µM. It also gave an MIC [31] of over 32 µM, a hemolysis at 1 h, 128 µM [32] of under 10% and an MIC [33] of over 32 µM. It also gave an MIC [34] of 4 µM, an MIC [35] of 4 µM and an MIC [36] of 16 µM. For the same substance, the MIC [37] was 4 µM, the MIC [38] was 4 µM and the HC10 [39] was over 128 µM. For the same substance, the IC50 at 8 h [40] was over 64 µM, the IC50 at 8 h [41] was over 64 µM and the IC50 at 8 h [42] was over 64 µM.

In the case of H-CKLWLKGGKLWLKGGKLWLKG-NH2, the MIC [1] is reported as over 32 µM, the MIC [2] is reported as 2 µM and the MIC [3] is reported as over 32 µM. For the same substance, the MIC [4] was 2 µM, the MIC [5] was over 32 µM and the MIC [6] was over 32 µM. For the same substance, the MIC [7] was over 32 µM, the MIC [8] was over 32 µM and the MIC [9] was over 32 µM. For the same substance, the MIC [10] was over 32 µM, the MIC [11] was over 32 µM and the MIC [12] was over 32 µM. For the same substance, the MIC [13] was over 32 µM, the MBC [14] was over 32 µM and the MBC [15] was 2 µM. The MBC [16] was over 32 µM, the MBC [17] was over 32 µM and the MBC [18] was 2 µM. It also gave an MBC [19] of over 32 µM, an MBC [20] of over 32 µM and an MBC [21] of over 32 µM. For the same substance, the MBC [22] was over 32 µM, the MBC [23] was over 32 µM and the MBC [24] was over 32 µM. The MBC [25] was over 32 µM, the MBC [26] was over 32 µM and the MBC [27] was over 32 µM. For the same substance, the MIC [28] was over 32 µM, the MIC [29] was over 32 µM and the MIC [30] was over 32 µM. For the same substance, the MIC [31] was 32 µM, the hemolysis at 1 h, 128 µM [32] was under 10% and the MIC [33] was over 32 µM. For the same substance, the MIC [34] was over 32 µM, the MIC [35] was over 32 µM and the MIC [36] was over 32 µM. For the same substance, the MIC [37] was over 32 µM, the MIC [38] was over 32 µM and the HC10 [39] was over 128 µM. It also gave an IC50 at 8 h [40] of 60.1 µM, an IC50 at 8 h [41] of over 64 µM and an IC50 at 8 h [42] of 14.3 µM.

For H-FKLWLKGGKLWLKGGKLWLKG-NH2, the MIC [1] was 4 µM, the MIC [2] was 1 µM and the MIC [3] was 4 µM. It also gave an MIC [4] of 2 µM, an MIC [5] of 32 µM and an MIC [6] of 8 µM. The MIC [7] was over 32 µM, the MIC [8] was over 32 µM and the MIC [9] was over 32 µM. The MIC [10] was over 32 µM, the MIC [11] was 16 µM and the MIC [12] was over 32 µM. The MIC [13] was over 32 µM, the MBC [14] was 8 µM and the MBC [15] was 1 µM. The MBC [16] was 16 µM, the MBC [17] was over 32 µM and the MBC [18] was 2 µM. The MBC [19] was 32 µM, the MBC [20] was 8 µM and the MBC [21] was over 32 µM. The MBC [22] was over 32 µM, the MBC [23] was over 32 µM and the MBC [24] was 32 µM. For the same substance, the MBC [25] was over 32 µM, the MBC [26] was over 32 µM and the MBC [27] was over 32 µM. It also gave an MIC [28] of over 32 µM, an MIC [29] of over 32 µM and an MIC [30] of over 32 µM. The MIC [31] was 16 µM, the hemolysis at 1 h, 128 µM [32] was under 10% and the MIC [33] was over 32 µM. The MIC [34] was 8 µM, the MIC [35] was 8 µM and the MIC [36] was over 32 µM. The MIC [37] was 8 µM, the MIC [38] was 2 µM and the HC10 [39] was 128 µM. It also gave an IC50 at 8 h [40] of over 64 µM, an IC50 at 8 h [41] of over 64 µM and an IC50 at 8 h [42] of 20 µM.

Reference: ChEMBL document CHEMBL5518215, “Unlocking Antibacterial Potential: Key-Site-Based Regulation of Antibacterial Spectrum of Peptides” (J Med Chem, 2024)
